Values quoted from earlier work as cited in patent publication US9480691B1, “Topical liquid containing refined peanut oil for treating skin proliferation or inflammation disorders” (Hill Dermaceuticals, Inc., priority 2009, dated 2016).

Test system: hypothalamus-pituitary-adrenal (HPA) axis
Details: at effective and prescribed doses

CCC(=O)O[C@]1(C(=O)CCl)[C@@H](C)C[C@H]2[C@@H]3CCC4=CC(=O)C=C[C@]4(C)[C@@]3(F)[C@@H](O)C[C@@]21C [clobetasol propionate, (11β,16β)-21-chloro-9-fluoro-11-hydroxy-16-methyl-17-(1-oxo-propoxy)pregna-1,4-diene,3,10-dione]
effect on HPA axis: suppress the hypothalamus-pituitary-adrenal (HPA) axis
